Like-named read-outs stand apart in the source and are kept apart here.
Assays:
[1] = test system: male albino mice (Swiss strain); assay: Acetylcholine induced abdominal constriction (writhe) method; type: in vivo, mouse; conditions: gavage
Protocol: Ibuprofen (racemic mixture) and ibuprofen (S)-(+) served as reference controls.
The study was conducted at two dose levels viz. 50 mg and 100 mg/kg body weight along with a vehicle control group. At each dose level 10 animals were used. All the doses were expressed as ibuprofen molar equivalents. The doses used as well as the molar equivalents are presented below.
The efficacy in terms of antagonizing effect on acetylcholine induced single writhe at two dose levels—50.0 and 100.0 mg/kg for the three formulations and reference controls are presented below.

Swiss Albino Mice [2] = conditions: mouse, in vivo
Swiss Albino Mice [3] = assay: 28-day chronic toxicity study of ibuprofen esters; conditions: 28 days; for No of animals survived: 10 animals per group; for Average Change In body Weight / Percentage Change of body weight: surviving animals
[4] = test system: fasted male albino rats (Wistar strain); assay: Gastric mucosal irritation potential of ibuprofen esters; type: in vivo, rat; conditions: two dose levels, 200 mg and 300 mg/kg
human volunteers = assay: Analgesic and anti-inflammatory effects of S(+)Ibuprofen-L-Threonine Ester in human volunteers; type: in vivo
Protocol: Determination of the analgesic and anti-inflammatory effects of S(+)Ibuprofen-L-Threonine Ester in three human volunteers was conducted as follows:
Two male, age 49 and 50 having severe headache took 1 capsule containing S(+)Ibuprofen-L-Threonine Ester manufacturing and formulation under GMP conditions. The capsule contents were equivalent to 200 mg of racemic Ibuprofen. Relief from headache was reported after 15 min, and complete absence of any pain from headache was reported at the end of 1 hour, which lasted for another 12 hours.
Two males age 49 and 51 took 1 capsule each containing S(+)IbuprofenL-Threonine ester for arthritic knee pain, which was perceptible. […] Such amolearation of pain was further sustained for another 24 hours.

[5] = test system: Spontaneously Hypertensive Rats (SHRs); assay: Hemodynamics in Spontaneously Hypertensive Rats; type: in vivo, rat
Protocol: ACE inhibitors have been known to be useful in antihypertensive therapy for many years. Some ACE inhibitors are delivered orally as the parent drug (captopril) while others are delivered as pro-drugs in order to obtain clinically useful plasma concentrations. This study provides data on the effect of these various enalapril derivatives on hemodynamics in SHRs when given orally and compared to enalapril.
Briefly, SHRs fitted with right carotid catheters were orally gavaged with 100 mg/kg enalapril or equivalent does of the enalapril derivatives, and the blood pressures were followed continuously up to 3 hours and then a measurement at 24 hours. The animals were conscious throughout the procedure and were placed in a restrainer and hooked up to a pressure transducer and a signal processor. After 3 hours, the animals were placed back into their cage, and blood pressure was finally measured again at 24 hours.

[6] = Solubility of propofol and its amino acid esters in water; conditions: water, solubility in water
albino mouse = assay: Anesthetic effect in male albino mice, righting reflex as index
[7] = test system: albino mice (Swiss strain); assay: 14 day repeated dose toxicity study, intravenous route, propofol esters
Patient = assay: Human clinical trial of S(−)Ketorolac-L-Threonine ester (analgesic activity); type: in vivo; conditions: for analgesic activity and side effects (words): 13 mg twice daily, oral capsules, Hydrochloride
Protocol: S(−)Ketorolac-L-Threonine ester capsules were filled using dextrose as the filler. […] For example, 13 mg of S(−)Ketorolac-L-Threonine ester was roughly equivalent to 13 mg of racemic Ketorolac tromethamine in tablet and/or capsule form.
A patient suffering from severe ankolysing spodolytis, arthritis and other inflammatory joint problems was under treatment with Indomethacin, 25 mg twice daily dose. In order the evaluate the analgesic activity of S(−) Ketorolac-L-Threonine ester, the patient was withdrawn from Indomethacin. After 24 hours, the pain returned and they were administered with 13 mg of S(−) Ketorolac L-Threonine ester, once in the morning and once in the evening. This was repeated for 5 days.
About 3 months later, the same above volunteer repeated the experiment. This time, after they went off the indomethacin, only one dose of 13 mg of S(−) Ketorolac-L-Threonine ester was administered. […] This treatment was continued for another 3 days of two capsules of 13 mg each. On the morning of the 6th day, they were switched back to Indomethacin.

[8] = 50.0 mg/kg in terms of Ibuprofen
[9] = 100.0 mg/kg in terms of Ibuprofen
[10] = 1 capsule equivalent to 200 mg racemic Ibuprofen

## CC(C)Cc1ccc(C(C)C(=O)O)cc1 (racemic) [Ibuprofen (racemic mixture), reference compound]
[1]; [8]
  Number of animals showing absence of single writhe (number of animals per dose = 10), One hour after dosing: 4
  Number of animals showing absence of single writhe (number of animals per dose = 10), Three hours after dosing: 2
[1]; [9]
  Number of animals showing absence of single writhe (number of animals per dose = 10), One hour after dosing: 6
  Number of animals showing absence of single writhe (number of animals per dose = 10), Three hours after dosing: 6
Swiss Albino Mice [2]; both
  animals that died: 40%
Swiss Albino Mice [2]; female
  Mortality: 3/5
Swiss Albino Mice [2]; male
  Mortality: 1/5
Swiss Albino Mice [3]
  No of animals survived: 6
  Average Change In body Weight: 2.97 gms
  Percentage Change of body weight: 12.54%

## CC(C)Cc1ccc([C@H](C)C(=O)O[C@H](C)[C@H](N)C(=O)O)cc1.Cl [S-(+)-Ibuprofen-L-threonine ester, 2(S)-Amino-3(R)-[2(S)-(4-isobutyl-phenyl)-propionyloxy]-butyric acid]
[1]; [8]
  Number of animals showing absence of single writhe (number of animals per dose = 10), One hour after dosing: 1
  Number of animals showing absence of single writhe (number of animals per dose = 10), Three hours after dosing: 0
[1]; [9]
  Number of animals showing absence of single writhe (number of animals per dose = 10), One hour after dosing: 3
  Number of animals showing absence of single writhe (number of animals per dose = 10), Three hours after dosing: 0
[4]
  irritation of gastric mucosa: significantly and completely non-toxic to GI mucosa in the rats tested
Human volunteers; 1 capsule
  amelioration of knee pain sustained for another: 24 h
Human volunteers; [10]
  absence of headache pain lasted for another: 12 h
  complete absence of any pain from headache reported at the end of: 1 h
Human volunteers; 1 capsule equivalent to 200 mg racemic Ibuprofen, two males with severe headache
  relief from headache reported after: 15 min
Human volunteers; 1 capsule, two males, after 12 hours
  arthritic knee pain: significant reduction is the pain associated with their right knee
Swiss Albino Mice [3]
  No of animals survived: 10
  Average Change In body Weight: −0.68 gms
  Percentage Change of body weight: −3.61%
Swiss Albino Mice [3]; both sexes
  animals that died: none of the animals
Swiss Albino Mice [3]; Female
  Mortality: Nil
Swiss Albino Mice [3]; Male
  Mortality: Nil

## CCOC(=O)[C@H](CCc1ccccc1)N[C@@H](C)C(=O)N1CCC[C@H]1C(=O)O [Enalapril]
[5]; 100 mg/kg oral gavage, at 3 hours and 24 hours
  reduction of blood pressure: approximately 20%
[5]; oral, 100 mg/kg enalapril or equivalent doses
  arterial blood pressure: reduced arterial blood pressure

## CC(C)c1cccc(C(C)C)c1OC(=O)C1CCCN1.Cl (stereo in doubt) [Propofol Proline Ester, Pyrrolidine-2(S)-carboxylic acid 2,6-diisopropyl-phenyl ester, hydrochloride]
[6]
  solubility: > 100 mg/mL
Albino mouse; Intermediate Dose
  anesthetic effect, relative efficacy: more effective
Albino mouse; low, intermediate, high dose
  dose response relation (statistical analysis): No significant dose—response effects were evident
[7]; 14 days
  feed intake: normal and comparable to that of vehicle control group
[7]; 14 days, vs reference group
  behavior, feed consumption, organ weights, histopathology of different organs: normal and comparable to that of the animals of the reference group
[7]; IV daily 14 days
  animals exhibiting clinical symptoms of toxicity: None of the animals
[7]; IV daily 14 days, compared to vehicle control
  body weight gain: normal and comparable to that of vehicle control group of animals
[7]; female animals
  MCV vs Propofol injection (RC) [p<0.05]: significantly decreased
  level of urea vs Propofol injection (RC) [p<0.05]: significantly decreased
[7]; male animals
  granulocytes vs Propofol injection (RC) [p<0.05]: significantly decreased
  level of sodium vs Propofol injection (RC) [p<0.05]: significantly increased
  lymphocytes counts vs Propofol injection (RC) [p<0.05]: significantly increased

## S(−)-Ketorolac L-Threonine Ester, Hydrochloride [S(−) Ketorolac L-Threonine ester]
Patient
  analgesic activity and side effects (words): lack of pain, no gastric irritation symptoms, or other side effects
Patient; listed as S(−) Ketorolac-L-Threonine ester
  analgesic activity and side effects (words): lack of any pain
Patient; only one dose of 13 mg daily, after the 2nd day
  analgesic activity: complained of the pain resurfacing

From patent publication US8173840B2, “Compounds with high therapeutic index” (Signature R&D Holdings, LLC, priority 2003, dated 2012)
